{"source": "patent US20070275949A1", "about": "“Benzazepine Derivatives and Methods of Prophylaxis or Treatment of 5Ht2C Receptor Associated Diseases” (Arena Pharmaceuticals, Inc., priority 2003, published 2007)", "origin": "cited, not measured here", "tested_on": "guinea pigs", "conditions": "in vivo, repeat administration", "data": [{"smiles": "C[C@H](N)Cc1cccc(C(F)(F)F)c1", "note": "[dexnorfenfluramine]", "values": [{"measurement": "amyloid precursor protein (APPs) secretion", "result": "stimulated"}, {"measurement": "levels of Aβ production", "result": "reducing"}]}]}
